# According to ChEMBL document CHEMBL3885861, “Open TG-GATES”:
# Species on record: Rattus norvegicus
# Test: Open TG-GATES - Regimen: Single
# Format: toxicity, organism-based, Sprague-Dawley
# Parameters: regimen Single, gender Male, age 6 weeks
# Details: in vivo, po, 0 mg/kg, route gavage, dose level Control; for APTT / Bas / Eos / Fbg / Hb / Ht / Lym / MCH / MCHC / MCV / Mono / Neu / PT / Plat / RBC / Ret / WBC: tissue Blood; for KIDNEY_L / KIDNEY_R / KIDNEY_TOTAL: tissue Kidney; for LIVER: tissue Liver; for A/G / ALP / ALT / AST / BUN / CRE / Ca / Cl / DBIL / GLC / IP / K / LDH / Na / PL / RALB / TBIL / TC / TG / TP / gamma-GTP: tissue Plasma
compound,measurement,setting,value
O=NN(CCCl)C(=O)NC1CCCCC1 [LOMUSTINE],TERMINAL_BW,3 h,205.6 g
same,APTT,3 h,16.5 s
same,Bas,3 h,0%
same,Eos,3 h,0.6%
same,Fbg,3 h,207.8 mg/dL
same,Hb,3 h,13 g/dL
same,Ht,3 h,39.5%
same,Lym,3 h,82%
same,MCH,3 h,21.7 pg
same,MCHC,3 h,32.9%
same,MCV,3 h,66 fL
same,Mono,3 h,6.4%
same,Neu,3 h,11.2%
same,PT,3 h,11 s
same,Plat,3 h,100.4 x10_4/uL
same,RBC,3 h,599.2 x10_4/ul
same,Ret,3 h,8.5%
same,WBC,3 h,134.2 x10_2/uL
same,KIDNEY_L,3 h,0.9 g
same,KIDNEY_R,3 h,0.9 g
same,KIDNEY_TOTAL,3 h,1.9 g
same,LIVER,3 h,10 g
same,A/G,3 h,2
same,ALP,3 h,881.4 IU/L
same,ALT,3 h,36.4 IU/L
same,AST,3 h,66.4 IU/L
same,BUN,3 h,14.6 mg/dL
same,CRE,3 h,0.6 mg/dL
same,Ca,3 h,11.3 mg/dL
same,Cl,3 h,106.4 meq/L
same,DBIL,3 h,0.072 mg/dL
same,GLC,3 h,187 mg/dL
same,IP,3 h,9.5 mg/dL
same,K,3 h,5 meq/L
same,LDH,3 h,89.6 IU/L
same,Na,3 h,139.8 meq/L
same,PL,3 h,134.4 mg/dL
same,RALB,3 h,3.7 g/dL
same,TBIL,3 h,0.3 mg/dL
same,TC,3 h,76.4 mg/dL
same,TG,3 h,50.2 mg/dL
same,TP,3 h,5.6 g/dL
same,gamma-GTP,3 h,1.4 IU/L
same,TERMINAL_BW,6 h,200.9 g
same,APTT,6 h,17.4 s
same,Bas,6 h,0%
same,Eos,6 h,0.6%
same,Fbg,6 h,218.2 mg/dL
same,Hb,6 h,13.6 g/dL
same,Ht,6 h,41.3%
same,Lym,6 h,72%
same,MCH,6 h,22 pg
same,MCHC,6 h,32.9%
same,MCV,6 h,66.7 fL
same,Mono,6 h,6.6%
same,Neu,6 h,20.6%
same,PT,6 h,12.2 s
same,Plat,6 h,106.2 x10_4/uL
same,RBC,6 h,619.2 x10_4/ul
same,Ret,6 h,8.9%
same,WBC,6 h,71.6 x10_2/uL
same,KIDNEY_L,6 h,1 g
same,KIDNEY_R,6 h,1 g
same,KIDNEY_TOTAL,6 h,2 g
same,LIVER,6 h,9.4 g
same,A/G,6 h,2
same,ALP,6 h,849.6 IU/L
same,ALT,6 h,28.2 IU/L
same,AST,6 h,66 IU/L
same,BUN,6 h,10.2 mg/dL
same,CRE,6 h,0.5 mg/dL
same,Ca,6 h,11.1 mg/dL
same,Cl,6 h,103.4 meq/L
same,DBIL,6 h,0.01 mg/dL
same,GLC,6 h,189.6 mg/dL
same,IP,6 h,11.2 mg/dL
same,K,6 h,5.6 meq/L
same,LDH,6 h,116.4 IU/L
same,Na,6 h,141.2 meq/L
same,PL,6 h,141.6 mg/dL
same,RALB,6 h,3.7 g/dL
same,TBIL,6 h,0.3 mg/dL
same,TC,6 h,78.8 mg/dL
same,TG,6 h,50.6 mg/dL
same,TP,6 h,5.7 g/dL
same,gamma-GTP,6 h,1 IU/L
same,TERMINAL_BW,9 h,199.9 g
same,APTT,9 h,16.9 s
same,Bas,9 h,0%
same,Eos,9 h,0.8%
same,Fbg,9 h,213.2 mg/dL
same,Hb,9 h,13.1 g/dL
same,Ht,9 h,40.2%
same,Lym,9 h,79.4%
same,MCH,9 h,21.7 pg
same,MCHC,9 h,32.6%
same,MCV,9 h,66.4 fL
same,Mono,9 h,6.2%
same,Neu,9 h,14%
same,PT,9 h,12.5 s
same,Plat,9 h,107.9 x10_4/uL
same,RBC,9 h,606.2 x10_4/ul
same,Ret,9 h,8.8%
same,WBC,9 h,91.5 x10_2/uL
same,KIDNEY_L,9 h,0.9 g
same,KIDNEY_R,9 h,0.9 g
same,KIDNEY_TOTAL,9 h,1.8 g
same,LIVER,9 h,8.5 g
same,A/G,9 h,2.4
same,ALP,9 h,985 IU/L
same,ALT,9 h,28 IU/L
same,AST,9 h,55.8 IU/L
same,BUN,9 h,10.8 mg/dL
same,CRE,9 h,0.5 mg/dL
same,Ca,9 h,10.8 mg/dL
same,Cl,9 h,105.6 meq/L
same,DBIL,9 h,0.072 mg/dL
same,GLC,9 h,193.6 mg/dL
same,IP,9 h,11 mg/dL
same,K,9 h,4.8 meq/L
same,LDH,9 h,101 IU/L
same,Na,9 h,139 meq/L
same,PL,9 h,120.8 mg/dL
same,RALB,9 h,3.9 g/dL
same,TBIL,9 h,0.3 mg/dL
same,TC,9 h,67.2 mg/dL
same,TG,9 h,43.2 mg/dL
same,TP,9 h,5.6 g/dL
same,gamma-GTP,9 h,1.4 IU/L
same,TERMINAL_BW,24 h,218.2 g
same,APTT,24 h,16 s
same,Bas,24 h,0%
same,Eos,24 h,0.4%
same,Fbg,24 h,225 mg/dL
same,Hb,24 h,13 g/dL
same,Ht,24 h,38.8%
same,Lym,24 h,80.4%
same,MCH,24 h,22.5 pg
same,MCHC,24 h,33.5%
same,MCV,24 h,67.2 fL
same,Mono,24 h,6.4%
same,Neu,24 h,12.4%
same,PT,24 h,11.9 s
same,Plat,24 h,100.3 x10_4/uL
same,RBC,24 h,578.2 x10_4/ul
same,Ret,24 h,8.8%
same,WBC,24 h,130.7 x10_2/uL
same,KIDNEY_L,24 h,1 g
same,KIDNEY_R,24 h,1 g
same,KIDNEY_TOTAL,24 h,2 g
same,LIVER,24 h,11.5 g
same,A/G,24 h,2.1
same,ALP,24 h,991.8 IU/L
same,ALT,24 h,35 IU/L
same,AST,24 h,63.6 IU/L
same,BUN,24 h,19.2 mg/dL
same,CRE,24 h,0.5 mg/dL
same,Ca,24 h,11.3 mg/dL
same,Cl,24 h,104.8 meq/L
same,DBIL,24 h,0.018 mg/dL
same,GLC,24 h,203.8 mg/dL
same,IP,24 h,8.4 mg/dL
same,K,24 h,5.4 meq/L
same,LDH,24 h,130.2 IU/L
same,Na,24 h,138.2 meq/L
same,PL,24 h,146.6 mg/dL
same,RALB,24 h,3.9 g/dL
same,TBIL,24 h,0.4 mg/dL
same,TC,24 h,79.8 mg/dL
same,TG,24 h,96.6 mg/dL
same,TP,24 h,5.8 g/dL
same,gamma-GTP,24 h,1.4 IU/L
